Where “and” joins values, the source holds several entries; their conditions need not be identical. Equal entries are not always repeated.
Target: T1, KDM4A F185A (asKDM4A) in HEK293T cells (Homo sapiens, UniProt O75164, F185A)
T1 construct: we generated the F185A mutation in full-length KDM4A carrying all of the functional domains; host or cells: HEK293T
T1 sequence (O75164 1-1064 F185A): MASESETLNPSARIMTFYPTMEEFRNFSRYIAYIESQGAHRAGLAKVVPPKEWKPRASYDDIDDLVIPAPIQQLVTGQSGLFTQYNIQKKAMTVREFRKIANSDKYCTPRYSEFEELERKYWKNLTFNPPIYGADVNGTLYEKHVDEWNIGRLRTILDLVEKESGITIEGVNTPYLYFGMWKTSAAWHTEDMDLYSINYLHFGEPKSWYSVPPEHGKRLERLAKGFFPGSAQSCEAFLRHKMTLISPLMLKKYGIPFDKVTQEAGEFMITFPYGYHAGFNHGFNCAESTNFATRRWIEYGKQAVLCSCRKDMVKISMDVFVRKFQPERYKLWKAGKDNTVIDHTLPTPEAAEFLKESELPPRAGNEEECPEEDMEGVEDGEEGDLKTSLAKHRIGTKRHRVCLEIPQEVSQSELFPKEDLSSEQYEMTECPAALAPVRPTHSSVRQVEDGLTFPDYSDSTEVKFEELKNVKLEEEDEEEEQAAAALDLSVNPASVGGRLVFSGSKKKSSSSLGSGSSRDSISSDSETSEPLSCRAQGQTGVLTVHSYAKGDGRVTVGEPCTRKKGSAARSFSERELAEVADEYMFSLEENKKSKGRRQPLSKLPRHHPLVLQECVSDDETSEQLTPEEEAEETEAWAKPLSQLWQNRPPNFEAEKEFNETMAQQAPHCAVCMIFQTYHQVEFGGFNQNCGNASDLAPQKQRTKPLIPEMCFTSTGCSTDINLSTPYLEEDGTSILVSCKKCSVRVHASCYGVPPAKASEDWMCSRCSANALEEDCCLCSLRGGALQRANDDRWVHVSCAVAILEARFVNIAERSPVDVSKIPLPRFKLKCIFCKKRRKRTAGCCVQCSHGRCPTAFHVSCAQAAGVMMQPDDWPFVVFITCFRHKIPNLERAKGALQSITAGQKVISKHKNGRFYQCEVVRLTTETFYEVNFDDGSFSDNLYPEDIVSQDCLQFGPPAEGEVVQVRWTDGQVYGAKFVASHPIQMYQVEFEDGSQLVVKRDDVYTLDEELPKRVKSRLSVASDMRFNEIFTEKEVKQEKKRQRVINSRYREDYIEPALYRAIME
Assay: Histone extraction, digestion and tandem mass spectrometry (relative abundance of histone modifications)
Type: cell-based
Description: HEK293T cells were transiently transfected with asKDM4A and treated with varying concentrations of 6A or 6B. […] To further confirm the activity of the enzyme–inhibitor pair, we performed tandem mass spectrometry of tryptic histones isolated from HEK293T cells expressing asKDM4A in the presence or absence of 100 μM 6A. […]
22. Histone extraction, digestion and tandem mass spectrometry
HEK 293-T cells (ATCC CRL-1573) were plated into 6-well plates (Corning) in DMEM (Corning) supplemented with 10% FBS (Corning) and 1X Antibiotic/Antimycin
(Penicillin/Streptomycin/Fungiozone) (Cytiva HyClone) in an incubator held at 37 °C with 5%
CO2. At 75% confluency, cells were transfected with 2.5 µg KDM4A F185A or Empty Vector with 5µg Thermo Turbofect (FERR0531). After 4 hours, the media was washed and 200 µM of 6A or equivalent volume of DMSO was added and left to incubate at 37 °C for 24 hours. Cells were then washed with 1X PBS (Corning) followed by trypsinization (Gibco TrypLE™ Express Enzyme). Collected cells were centrifuged at 3000xg for 3 minutes, followed by washing with 1X PBS and centrifuged for an additional 3000xg for 3 minutes. Histone proteins were extracted from the pellet as described by25 to ensure good-quality identification and quantification of single histone marks. Briefly, cell pellets were dissolved in 100 µL of cold 0.2 M H2SO4 and incubated for 2 hours rotating in a cold room (4 °C). Aliquots were then centrifuged at 3400xg for 5 minutes […]
at 4 °C and the supernatant was added to a fresh tube. 100% cold TCA was then added to a final volume of 33% volume/volume TCA/supernatant and left to incubate for 1 hour in a cold room (4 °C). Samples were then centrifuged at 3400xg for 5 min at 4 °C and the supernatant was discarded. The precipitate was then washed with cold acetone/0.1% HCl and centrifuged at 3400xg for 5 minutes at 4 °C. The supernatant was discarded, and the precipitate was washed with cold acetone and centrifuged at 3400xg for 5 minutes at 4 °C. The supernatant was discarded, and the pellet was dried using a vacuum centrifuge.
The pellet was dissolved in 50 mM ammonium bicarbonate, pH 8.0, and histones were subjected to derivatization using 5 µL of propionic anhydride and 14 µL of ammonium hydroxide (all Sigma Aldrich) to balance the pH at 8.0. The mixture was incubated for 15 min and the procedure was repeated. Histones were then digested with 1 µg of sequencing grade trypsin (Promega) diluted in 50mM ammonium bicarbonate (1:20, enzyme:sample) overnight at room temperature.
Derivatization reaction was repeated to derivatize peptide N-termini. The samples were dried in a […]
Sample desalting: Prior to mass spectrometry analysis, samples were desalted using a 96-well plate filter (Orochem) packed with 1 mg of Oasis HLB C-18 resin (Waters). Briefly, the samples were resuspended in 100 µl of 0.1% TFA and loaded onto the HLB resin, which was previously equilibrated using 100 µl of the same buffer. After washing with 100 µl of 0.1% TFA, the samples were eluted with a buffer containing 70 µl of 60% acetonitrile and 0.1% TFA and then dried in a […]
LC-MS/MS Acquisition and Analysis: Samples were resuspended in 10 µl of 0.1% TFA and loaded onto a Dionex RSLC […] (Thermo Scientific), coupled online with an Orbitrap Fusion Lumos (Thermo Scientific). Chromatographic separation was performed with a two-column system, consisting of a C-18 trap cartridge (300 µm ID, 5 mm length) and a picofrit analytical column (75 µm ID, 25 cm length) packed in-house with reversed-phase Repro-Sil Pur C18-AQ 3 µm resin. Peptides were separated using a 30 min gradient from 1-30% buffer B (buffer A: 0.1% formic acid, buffer B: 80% acetonitrile + 0.1% formic acid) at a flow rate of 300 nl/min.
The mass spectrometer was set to acquire spectra in a data-independent acquisition (DIA) mode.

[1] = 6A-treated samples, replicates _1 and _2
[2] = H1 variant peptide, samples 6A_1, 6A_2
[3] = HEK293T cells expressing asKDM4A, 100 μM 6A, LC-MS/MS, n = 2
[4] = HEK293T cells, KDM4A F185A + 6A, replicates 6A_1 and 6A_2

CCCCCCCCOC(=O)C(=O)NC(CC(C)C)C(=O)O [6A, L-Leu octyl-ester NOG] was tested, and the “Single marks H3K4ac” value [1] was 1e-6 and 0.002004, the “Single marks H3K4me1” value [1] was 0.1039 and 0.09374 and the “Single marks H3K4me2” value [1] was 0.002434 and 0.008819. For the same compound, the “Single marks H3K4me3” value [1] was 9e-6 and 0.003387, the “Single marks H3K9ac” value [1] was 0.003245 and 0.006938 and the “Single marks H3K9me1” value [1] was 0.2368 and 0.08817. The “Single marks H3K9me2” value [1] was 0.4213 and 0.4856, the “Single marks H3K9me3” value [1] was 0.1855 and the “Single marks H3K14ac” value [1] was 0.4176 and 0.5798. For the same compound, the “Single marks H3K18ac” value [1] was 0.008957 and 0.006562, the “Single marks H3K18me1” value [1] was 0 and 1.2e-5 and the “Single marks H3K23ac” value [1] was 0.5125 and 0.4435. The “Single marks H3K23me1” value [1] was 0 and 5e-6, the “Single marks H3K56ac” value [1] was 0 and the “Single marks H3K56me1” value [1] was 0 and 0.9736. For the same compound, the “Single marks H3K56me2” value [1] was 0, the “Single marks H3K56me3” value [1] was 0 and the “Single marks H3K79ac” value [1] was 0. For the same compound, the “Single marks H3K79me1” value [1] was 0.3484 and 0.03322, the “Single marks H3K79me2” value [1] was 0.33 and 0.01715 and the “Single marks H3K79me3” value [1] was 0.04582 and 0. For the same compound, the “Single marks H3K122ac” value [1] was 0.5896 and 0, the “Single marks H3S10ph” value [1] was 0.08584 and 0.005059 and the “Single marks H4K5ac” value [1] was 0.04104 and 0.1648. The “Single marks H4K8ac” value [1] was 0.05131 and 0.1596, the “Single marks H4K12ac” value [1] was 0.09119 and 0.2668 and the “Single marks H4K16ac” value [1] was 0.3167 and 0.492. The “Single marks H4K20ac” value [1] was 0.00298 and 0.01255, the “Single marks H4K20me1” value [1] was 0.4844 and 0.3612 and the “Single marks H4K20me2” value [1] was 0.1012 and 0.2416. For the same compound, the “Single marks H4K20me3” value [1] was 0.03481 and 0.03641, the “Single marks H31K27ac” value [1] was 0.000296 and 0 and the “Single marks H31K27me1” value [1] was 0.18 and 0.1869. For the same compound, the “Single marks H31K27me2” value [1] was 0.4707 and 0.5161, the “Single marks H31K27me3” value [1] was 0.189 and 0.1409 and the “Single marks H31K36me1” value [1] was 0.204 and 0.1649. The “Single marks H31K36me2” value [1] was 0.3714 and 0.4932, the “Single marks H31K36me3” value [1] was 0.07097 and 0.06279 and the “Single marks H33K27ac” value [1] was 6.9e-5 and 0. For the same compound, the “Single marks H33K27me1” value [1] was 0.2147 and 0.2058, the “Single marks H33K27me2” value [1] was 0.4693 and 0.4746 and the “Single marks H33K27me3” value [1] was 0.1187 and 0.09838. For the same compound, the “Single marks H33K36me1” value [1] was 0.2345 and 0.1564, the “Single marks H33K36me2” value [1] was 0.4525 and 0.5384 and the “Single marks H33K36me3” value [1] was 0.03679 and 0.06963. For the same compound, the “Relative abundance, H1_1_35 H11.SETAPVAQAASTATEKPAAAKKTKKPAKAAAPR” value [2] was 0.0%, the “Relative abundance, H1_1_35 H13.SETAPAAPAAPAPVEKTPVKKKAKKTGAAAGKR” value [2] was 0.0% and the “Relative abundance, H1_1_35 H15.SETAPAETAAPAPVEKSPAKKKTTKKAGAAKR” value [2] was 0.0%. The “Relative abundance, H1_54_81 H1v234.SGVSLAALKKALAAAGYDVEKNNSR” value [2] was 100.0% and 65.9%, the “Relative abundance, H1_54_81 H11.SGVSLAALKKSLAAAGYDVEKNNSR” value [2] was 0.0% and the “Relative abundance, H1_54_81 H15.GGVSLPALKKALAAGGYDVEKNNSR” value [2] was 0.0%. The “relative abundance of other key histone methylation and acetylation sites” value (HEK293T cells expressing asKDM4A, 100 μM 6A, LC-MS/MS) was “remained unaffected”, the “relative abundance of H3K9me3” value [3] was “recovered to the level of the control vector” and the “relative abundance of H3K36me3” value [3] was “recovered to the level of the control vector”. For the same compound, the “Relative abundance AKAKSR(H2A3_12_17) (peptide total)” value [4] was 100.0%, the “Relative abundance AKAKTR(H2A1_12_17) (peptide total)” value [4] was 100.0% and the “Relative abundance DNKKTR(H2A1_72_77) (peptide total)” value [4] was 100.0%. For the same compound, the “Relative abundance H2A1_12_17 K13ac” value [4] was 0.0152% and 0.527%, the “Relative abundance H2A1_12_17 K13acK15ac” value [4] was 0.0603% and 0.3% and the “Relative abundance H2A1_12_17 K13me1” value [4] was 1.8% and 5.0%. The “Relative abundance H2A1_12_17 K15ac” value [4] was 15.2% and 32.5%, the “Relative abundance H2A1_12_17 K15me1” value [4] was 4.8% and 11.0% and the “Relative abundance H2A1_12_17 unmod” value [4] was 78.1% and 50.7%. The “Relative abundance H2A1_72_77 K74ac” value [4] was 0.0186% and 0.272%, the “Relative abundance H2A1_72_77 unmod” value [4] was 100.0% and 99.7% and the “Relative abundance H2A3_12_17 K13ac” value [4] was 0.023% and 0.0778%. The “Relative abundance H2A3_12_17 K13acK15ac” value [4] was 0.0187% and 0.4%, the “Relative abundance H2A3_12_17 K13me1” value [4] was 11.1% and 15.7% and the “Relative abundance H2A3_12_17 K15ac” value [4] was 0.0415% and 0.131%. For the same compound, the “Relative abundance H2A3_12_17 K15me1” value [4] was 72.5% and 57.2%, the “Relative abundance H2A3_12_17 unmod” value [4] was 16.3% and 26.5% and the “Relative abundance H2AZ_1_19 K4acK7acK11ac” value [4] was 0.0%. The “Relative abundance H2AZ_1_19 K4acK7acK11acK15ac” value [4] was 1.0% and 0.641%, the “Relative abundance H2A_1_88 H2A14s.HLQLAIR” value [4] was 85.1% and 95.1% and the “Relative abundance H2A_1_88 H2AX.GKTGGKAR” value [4] was 1.9% and 1.0%. For the same compound, the “Relative abundance H2A_1_88 H2AZ.AGGKAGKDSGKAKTKAVSR” value [4] was 13.0% and 3.9%.

From article PMC11783601, “Analogue-Sensitive Inhibition of Histone Demethylases Uncovers Member-Specific Function in Ribosomal Protein Synthesis” (Journal of the American Chemical Society, 2025)
